Our source for the TGI and GI50 values is PubChem BioAssay (NCI).

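The compound was tested at five concentrations on cells cultured in 96-well plates, with a 48-hour exposure period. GI50 marks 50% less growth. TGI marks complete inhibition of growth.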

Some test systems named below: UACC-62 melanoma; U251 CNS; OVCAR-4 ovarian; HOP-62 NSCLC; BT-549 breast; NCI-H460 lung; HCT-15 colon; SF-268 CNS; T-47D breast; RPMI-8226 leukemia.
Holding throughout (assay): growth of human tumour cells (NCI), 48 h

Consider `CCOC(=O)c1c2ccccc2n2c(=O)n(-c3ccccc3)nnc12`, for which the TGI with UACC-62 melanoma, with U251 CNS, in the experiment on OVCAR-4 ovarian, in the experiment with HOP-62 NSCLC, in the experiment on BT-549 breast and in the experiment on NCI-H460 lung was above 100 µM each time. Further, the TGI with HCT-15 colon is above 100 µM; with SF-268 CNS, above 100 µM; in the experiment with T-47D breast, 71.5 µM; with RPMI-8226 leukemia, above 100 µM.
On to `CCOC(=O)c1cn2c(n1)sc1cc([N+](=O)[O-])ccc12`, for which the TGI in the experiment on UACC-62 melanoma, with U251 CNS, in the experiment on OVCAR-4 ovarian, in the experiment on HOP-62 NSCLC, with BT-549 breast and in the experiment with NCI-H460 lung was above 100 µM each time. Besides, the TGI with HCT-15 colon, in the experiment on SF-268 CNS, in the experiment on T-47D breast and with RPMI-8226 leukemia was above 100 µM each time.
In the case of `CN(C)CCCCN1c2ccccc2Sc2ccc(N=[N+]=[N-])cc21`, the TGI in the experiment with UACC-62 melanoma is 3.77 µM; in the experiment on U251 CNS, 11.9 µM; with OVCAR-4 ovarian, 19.3 µM; with HOP-62 NSCLC, 25.1 µM; in the experiment on BT-549 breast, 24.5 µM; with NCI-H460 lung it was 16.2 µM. Also, the TGI came to 12.8 µM in the experiment on HCT-15 colon, 19.5 µM with SF-268 CNS, 13.5 µM with T-47D breast and 5.45 µM in the experiment on RPMI-8226 leukemia.
Regarding `CCOC(=O)c1sc(N)nc1N1CCCC1`, the TGI with UACC-62 melanoma, with U251 CNS, in the experiment on OVCAR-4 ovarian, with HOP-62 NSCLC, in the experiment on BT-549 breast and with NCI-H460 lung was above 100 µM throughout. The TGI with HCT-15 colon, with T-47D breast and in the experiment on RPMI-8226 leukemia was above 100 µM in each case.
As to `COc1ccccc1Nc1nc(N)nc(N)c1N`, the TGI in the experiment on UACC-62 melanoma, with U251 CNS, in the experiment with OVCAR-4 ovarian, in the experiment on HOP-62 NSCLC, in the experiment on BT-549 breast and with NCI-H460 lung was above 100 µM throughout. The TGI was above 100 µM in the experiment with HCT-15 colon, above 100 µM in the experiment on SF-268 CNS, above 100 µM in the experiment with T-47D breast and 82.7 µM with RPMI-8226 leukemia.
With `CC(C)c1cc(C(C)C)c(S(=O)(=O)N/N=C2\CC3CCC2(C)C3(C)C)c(C(C)C)c1` (stereo not given), the TGI in the experiment with UACC-62 melanoma, in the experiment with U251 CNS, with OVCAR-4 ovarian, with HOP-62 NSCLC, in the experiment with BT-549 breast and in the experiment with HCT-15 colon was above 100 µM throughout. Also, the TGI in the experiment on SF-268 CNS is above 100 µM; in the experiment on T-47D breast it was 68 µM; in the experiment on RPMI-8226 leukemia, 21.2 µM.
`COc1cc(/C=C2\C(=O)Nc3ccc(O)cc32)cc(OC)c1OC`: the GI50 in the experiment on UACC-62 melanoma is 11.7 µM; in the experiment with U251 CNS it was 4.08 µM; with OVCAR-4 ovarian it was 11.1 µM; in the experiment with BT-549 breast, 11 µM; in the experiment with NCI-H460 lung, 8.69 µM; in the experiment on HCT-15 colon, 13.1 µM. For the same molecule, the GI50 was 6.49 µM in the experiment on SF-268 CNS, 7.55 µM in the experiment on T-47D breast and 3.53 µM in the experiment on RPMI-8226 leukemia. Also, the TGI in the experiment with UACC-62 melanoma was 26.6 µM; with U251 CNS, 16.8 µM; in the experiment with OVCAR-4 ovarian, 55.7 µM; with BT-549 breast, 29.4 µM; with NCI-H460 lung, 35.9 µM; with HCT-15 colon, 41 µM. Moreover, the figures for the TGI in the experiment on SF-268 CNS, in the experiment on T-47D breast and in the experiment on RPMI-8226 leukemia were 26.8 µM, above 100 µM and 21.3 µM, respectively.
In the case of `COc1ccc2nc3cc(Cl)ccc3c(NCCCN(C)CCCNc3ccc4ncn5c6ccccc6c(=O)c3c45)c2c1`, the TGI came out at 7.93 µM in the experiment on UACC-62 melanoma; 1.63 µM in the experiment on U251 CNS; 3.95 µM in the experiment with OVCAR-4 ovarian; 6.1 µM with HOP-62 NSCLC; 4.59 µM in the experiment with BT-549 breast; 0.504 µM with NCI-H460 lung. Moreover, the TGI is above 9.4 µM in the experiment with HCT-15 colon, 12.6 µM with SF-268 CNS, above 17.3 µM in the experiment with T-47D breast and above 25 µM with RPMI-8226 leukemia.
Consider `CCc1c(N=[N+]=[N-])c2ccccc2oc1=O`, for which the TGI with UACC-62 melanoma, in the experiment with U251 CNS, in the experiment with OVCAR-4 ovarian, with HOP-62 NSCLC, in the experiment on BT-549 breast and with NCI-H460 lung was above 100 µM each time. Moreover, the TGI in the experiment on HCT-15 colon, in the experiment with SF-268 CNS, with T-47D breast and with RPMI-8226 leukemia was above 100 µM each time.
On to `C/C(=C/C(=O)N(C)c1ccccc1Cl)O[Si](C(C)C)(C(C)C)C(C)C`, for which the TGI is 38.7 µM in the experiment on U251 CNS; above 100 µM in the experiment with OVCAR-4 ovarian; 74.4 µM in the experiment with HOP-62 NSCLC; 56.6 µM in the experiment with BT-549 breast; 56.2 µM with NCI-H460 lung; 37.1 µM with HCT-15 colon. Besides, the TGI in the experiment with SF-268 CNS is 46.4 µM; in the experiment on T-47D breast, above 100 µM; with RPMI-8226 leukemia, 63.9 µM.
Regarding `O=C(O)c1ccc2nc(-c3ccccn3)c(-c3ccccn3)nc2c1`, the TGI in the experiment with UACC-62 melanoma, with U251 CNS, with OVCAR-4 ovarian, in the experiment on HOP-62 NSCLC, in the experiment with BT-549 breast and in the experiment on NCI-H460 lung was above 100 µM in each case. In addition, the TGI in the experiment with HCT-15 colon, with SF-268 CNS, with T-47D breast and in the experiment on RPMI-8226 leukemia was above 100 µM throughout.
With `O=c1cc(O)c1=O`, the TGI with UACC-62 melanoma, in the experiment with U251 CNS, in the experiment on OVCAR-4 ovarian, with HOP-62 NSCLC, in the experiment with BT-549 breast and with NCI-H460 lung was above 100 µM each time. Besides, the TGI in the experiment on HCT-15 colon, in the experiment on SF-268 CNS, with T-47D breast and in the experiment on RPMI-8226 leukemia was above 100 µM in each case.
As to `NS(=O)(=O)c1ccc(NNc2c3ccccc3nc3c(C(=O)Nc4ccc(S(N)(=O)=O)cc4)cccc23)cc1`, the TGI is above 100 µM in the experiment on UACC-62 melanoma; 61 µM in the experiment with U251 CNS; 75.1 µM with OVCAR-4 ovarian; above 100 µM with HOP-62 NSCLC; 54.7 µM in the experiment on BT-549 breast; above 100 µM with NCI-H460 lung. Also, the TGI in the experiment with HCT-15 colon is above 100 µM; with SF-268 CNS, 98.4 µM; in the experiment with T-47D breast, above 100 µM; in the experiment on RPMI-8226 leukemia it was above 100 µM.
